# Columns and labels:
# CD73 [1] = biological target: T1, CD73 (Homo sapiens (Human), UniProt P21589); format: biochemical; details: 1 mM NaH2PO4 in enzyme buffer, CD73 0.3 nM, AMP 15 uM
# CD73 [2] = biological target: T1, CD73; assay: MDA-MB-231 Cell Based CD73 Activity Assay (DMEM); details: MDA-MB-231-GFP cells, DMEM medium with 10% human plasma, 200 uM AMP
# Protocol: MDA-MB-231 Cell Based CD73 Activity Assay (DMEM) MDA-MB-231-GFP cells were seeded in 384-well plates (Greiner 781946) at a density of 3000 cells per well in 50 μL of DMEM medium with 10% HP (human plasma). Cells were plated into assay plate with compounds pre-spotted, for an overnight compound treatment. 50 uL of 400 uM AMP (final concentration will be 200 uM) was added using Bio-tek dispenser. Plates were incubated for 100 mins. […] The samples were analyzed using Rapid fire.
# T1 sequence (P21589 27-574): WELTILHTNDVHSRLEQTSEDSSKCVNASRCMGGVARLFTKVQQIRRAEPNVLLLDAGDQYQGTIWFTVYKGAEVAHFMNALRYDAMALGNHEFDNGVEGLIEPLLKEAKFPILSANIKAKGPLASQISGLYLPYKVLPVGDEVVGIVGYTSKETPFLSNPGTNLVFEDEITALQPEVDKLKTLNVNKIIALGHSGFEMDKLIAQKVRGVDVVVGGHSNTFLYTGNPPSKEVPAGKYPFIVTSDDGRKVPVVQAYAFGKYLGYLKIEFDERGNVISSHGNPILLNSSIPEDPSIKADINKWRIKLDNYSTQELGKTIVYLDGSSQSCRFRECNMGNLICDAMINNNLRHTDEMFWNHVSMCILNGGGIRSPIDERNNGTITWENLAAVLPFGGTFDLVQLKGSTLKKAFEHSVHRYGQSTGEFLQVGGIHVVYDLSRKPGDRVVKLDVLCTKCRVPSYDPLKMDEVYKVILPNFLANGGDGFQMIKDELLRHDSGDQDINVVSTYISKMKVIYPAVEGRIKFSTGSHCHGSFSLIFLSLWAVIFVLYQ
Structure (SMILES),IC50 (CD73 [1]) [nM],EC50 (CD73 [2]) [nM]
"O=c1[nH]cc(-c2cc([C@H]3C[C@@H]3c3ccc(OC(F)F)cn3)c3nccn3n2)c(=O)[nH]1 (racemic) [Example 136, 5-(8-((1S,2S)-2-(5-(difluoromethoxy)pyridin-2-yl)cyclopropyl)imidazo[1,2-b]pyridazin-6-yl)pyrimidine-2,4(1H,3H)-dione and 5-(8-((1R,2R)-2-(5-(difluoromethoxy)pyridin-2-yl)cyclopropyl)imidazo[1,2-b]pyridazin-6-yl)pyrimidine-2,4(1H,3H)-dione]",3.11,6.37
"O=c1[nH]cc(-c2cc([C@H]3C[C@@H]3c3cc(C(F)(F)F)c4ncccc4c3)c3nccn3n2)c(=O)[nH]1 (racemic) [Example 141, 5-(8-((1S,2S)-2-(8-(trifluoromethyl)quinolin-6-yl)cyclopropyl)imidazo[1,2-b]pyridazin-6-yl)pyrimidine-2,4(1H,3H)-dione and 5-(8-((1R,2R)-2-(8-(trifluoromethyl)quinolin-6-yl)cyclopropyl)imidazo[1,2-b]pyridazin-6-yl)pyrimidine-2,4(1H,3H)-dione]",2.1,24.8
"O=c1[nH]cc(-c2cc([C@H]3C[C@@H]3c3ccc(C(F)(F)F)cn3)c3nccn3n2)c(=O)[nH]1 (racemic) [Example 149, 5-(8-((1S,2S)-2-(5-(trifluoromethyl)pyridin-2-yl)cyclopropyl)imidazo[1,2-b]pyridazin-6-yl)pyrimidine-2,4(1H,3H)-dione and 5-(8-((1R,2R)-2-(5-(trifluoromethyl)pyridin-2-yl)cyclopropyl)imidazo[1,2-b]pyridazin-6-yl)pyrimidine-2,4(1H,3H)-dione]",3.34,7.61
"O=c1[nH]cc(-c2cc([C@H]3C[C@@H]3c3ccc(C(F)(F)F)nc3)c3nccn3n2)c(=O)[nH]1 (racemic) [Example 152, 5-(8-((1S,2S)-2-(6-(trifluoromethyl)pyridin-3-yl)cyclopropyl)imidazo[1,2-b]pyridazin-6-yl)pyrimidine-2,4(1H,3H)-dione and 5-(8-((1R,2R)-2-(6-(trifluoromethyl)pyridin-3-yl)cyclopropyl)imidazo[1,2-b]pyridazin-6-yl)pyrimidine-2,4(1H,3H)-dione]",3.45,17.5
"O=C(c1cn2nc(-c3c[nH]c(=O)[nH]c3=O)cc([C@H]3C[C@@H]3c3ccc(F)cc3)c2n1)N1CC(F)(F)C1 (racemic) [Example 198, 5-[2-(3,3-difluoroazetidine-1-carbonyl)-8-[(1S,2S)-2-(4-fluorophenyl)cyclopropyl]imidazo[1,2-b]pyridazin-6-yl]-1H-pyrimidine-2,4-dione]",85.2,191
"O=C(c1cn2nc(-c3c[nH]c(=O)[nH]c3=O)cc([C@H]3C[C@@H]3c3ccc(F)cc3)c2n1)N1CCC(F)(F)C1 (racemic) [Example 199, 5-[2-(3,3-difluoropyrrolidine-1-carbonyl)-8-[(1S,2S)-2-(4-fluorophenyl)cyclopropyl]imidazo[1,2-b]pyridazin-6-yl]-1H-pyrimidine-2,4-dione]",> 250,755
"N#Cc1ccc([C@H]2C[C@@H]2c2cc(-c3c[nH]c(=O)[nH]c3=O)nn3c(F)cnc23)cn1 (racemic) [Example 375, 5-((1S,2S)-2-(6-(2,4-dioxo-1,2,3,4-tetrahydropyrimidin-5-yl)-3-fluoroimidazo[1,2-b]pyridazin-8-yl)cyclopropyl)picolinonitrile]",2.83,11.2

# These reach a lower IC50 (CD73 [1]). Values come first.
IC50 (CD73 [1]) [nM],EC50 (CD73 [2]) [nM],Structure (SMILES)
1.08,19.7,"O=c1[nH]cc(-c2cc([C@H]3C[C@@H]3c3ccc(OC(F)F)nc3)c3ncc(F)n3n2)c(=O)[nH]1 (racemic) [Example 121, 5-(8-((1S,2S)-2-(6-(difluoromethoxy)pyridin-3-yl)cyclopropyl)-3-fluoroimidazo[1,2-b]pyridazin-6-yl)pyrimidine-2,4(1H,3H)-dione and 5-(8-((1R,2R)-2-(6-(difluoromethoxy)pyridin-3-yl)cyclopropyl)-3-fluoroimidazo[1,2-b]pyridazin-6-yl)pyrimidine-2,4(1H,3H)-dione]"
0.69,0.37,"O=c1[nH]cc(-c2cc([C@H]3C[C@@H]3c3ccc4cnn(CC(F)F)c4c3)c3nccn3n2)c(=O)[nH]1 (racemic) [Example 123, 5-(8-((1S,2S)-2-(1-(2,2-difluoroethyl)-1H-indazol-6-yl)cyclopropyl)imidazo[1,2-b]pyridazin-6-yl)pyrimidine-2,4(1H,3H)-dione and 5-(8-((1R,2R)-2-(1-(2,2-difluoroethyl)-1H-indazol-6-yl)cyclopropyl)imidazo[1,2-b]pyridazin-6-yl)pyrimidine-2,4(1H,3H)-dione]"
0.95,0.64,"O=c1[nH]cc(-c2cc([C@H]3C[C@@H]3c3ccc4cnc(C(F)(F)F)cc4c3)c3nccn3n2)c(=O)[nH]1 (racemic) [Example 138, 5-(8-((1S,2S)-2-(3-(trifluoromethyl)isoquinolin-6-yl)cyclopropyl)imidazo[1,2-b]pyridazin-6-yl)pyrimidine-2,4(1H,3H)-dione and 5-(8-((1R,2R)-2-(3-(trifluoromethyl)isoquinolin-6-yl)cyclopropyl)imidazo[1,2-b]pyridazin-6-yl)pyrimidine-2,4(1H,3H)-dione]"
0.96,3.76,"O=c1[nH]cc(-c2cc([C@H]3C[C@@H]3c3ccc4nc(C(F)(F)F)ccc4c3)c3nccn3n2)c(=O)[nH]1 (racemic) [Example 142, 5-(8-((1S,2S)-2-(2-(trifluoromethyl)quinolin-6-yl)cyclopropyl)imidazo[1,2-b]pyridazin-6-yl)pyrimidine-2,4(1H,3H)-dione and 5-(8-((1R,2R)-2-(2-(trifluoromethyl)quinolin-6-yl)cyclopropyl)imidazo[1,2-b]pyridazin-6-yl)pyrimidine-2,4(1H,3H)-dione]"
1.79,50,"O=c1[nH]cc(-c2cc([C@H]3C[C@@H]3c3ccc4onc(C(F)(F)F)c4c3)c3nccn3n2)c(=O)[nH]1 (racemic) [Example 327, 5-(8-((1S,2S)-2-(3-(trifluoromethyl)benzo[d]isoxazol-5-yl)cyclopropyl)imidazo[1,2-b]pyridazin-6-yl)pyrimidine-2,4(1H,3H)-dione]"
1.63,0.13,"O=C1N(CC(F)(F)F)c2cc([C@H]3C[C@@H]3c3cc(-c4c[nH]c(=O)[nH]c4=O)nn4ccnc34)ccc2C12CC2 (racemic) [Example 382, 5-(8-((1S,2S)-2-(2′-oxo-1′-(2,2,2-trifluoroethyl)spiro[cyclopropane-1,3′-indolin]-6′-yl)cyclopropyl)imidazo[1,2-b]pyridazin-6-yl)pyrimidine-2,4(1H,3H)-dione]"
1.83,49.3,"O=c1[nH]cc(-c2cc([C@H]3C[C@@H]3c3ccc4cnn(-c5ccc(C(F)(F)F)cn5)c4c3)c3nccn3n2)c(=O)[nH]1 (racemic) [Example 383, 5-(8-((1S,2S)-2-(1-(5-(trifluoromethyl)pyridin-2-yl)-1H-indazol-6-yl)cyclopropyl)imidazo[1,2-b]pyridazin-6-yl)pyrimidine-2,4(1H,3H)-dione]"
2,0.24,"CC(C)c1nn(CC(F)(F)F)c2cc([C@H]3C[C@@H]3c3cc(-c4c[nH]c(=O)[nH]c4=O)nn4ccnc34)ccc12 (racemic) [Example 396, 5-(8-((1S,2S)-2-(3-isopropyl-1-(2,2,2-trifluoroethyl)-1H-indazol-6-yl)cyclopropyl)imidazo[1,2-b]pyridazin-6-yl)pyrimidine-2,4(1H,3H)-dione]"
